ChEMBL document CHEMBL1671689, “Activity of ceftaroline against recent emerging serotypes of Streptococcus pneumoniae in the United States” (2010)
Values after ≈ are worked out from the molar mass of the structure shown.

How the values were obtained:
Type in all cases: functional
Streptococcus pneumoniae [1] = assay: Antimicrobial activity against Streptococcus pneumoniae serotype 19A by broth microdilution method
Streptococcus pneumoniae [2] = assay: Antimicrobial activity against Streptococcus pneumoniae serotype 3 by broth microdilution method
Streptococcus pneumoniae [3] = assay: Antimicrobial activity against Streptococcus pneumoniae serotype 35B by broth microdilution method
Streptococcus pneumoniae [4] = assay: Antimicrobial activity against Streptococcus pneumoniae serotype 7F by broth microdilution method
Streptococcus pneumoniae [5] = assay: Antimicrobial activity against Streptococcus pneumoniae serotype 11A by broth microdilution method
Streptococcus pneumoniae [6] = assay: Antimicrobial activity against Streptococcus pneumoniae serotype 6C by broth microdilution method
Streptococcus pneumoniae [7] = assay: Antimicrobial activity against multiple drug resistant Streptococcus pneumoniae serotype 19A by broth microdilution method
Streptococcus pneumoniae [8] = assay: Antimicrobial activity against multiple drug resistant Streptococcus pneumoniae serotype 19F by broth microdilution method
Streptococcus pneumoniae [9] = assay: Antimicrobial activity against multiple drug resistant Streptococcus pneumoniae serotype 6B by broth microdilution method
Streptococcus pneumoniae [10] = assay: Antimicrobial activity against Streptococcus pneumoniae serotype 19A assessed as percent susceptible isolates by broth microdilution method
Streptococcus pneumoniae [11] = assay: Antimicrobial activity against Streptococcus pneumoniae serotype 3 assessed as percent susceptible isolates by broth microdilution method
Streptococcus pneumoniae [12] = assay: Antimicrobial activity against Streptococcus pneumoniae serotype 35B assessed as percent susceptible isolates by broth microdilution method
Streptococcus pneumoniae [13] = assay: Antimicrobial activity against Streptococcus pneumoniae serotype 7F assessed as percent susceptible isolates by broth microdilution method
Streptococcus pneumoniae [14] = assay: Antimicrobial activity against Streptococcus pneumoniae serotype 11A assessed as percent susceptible isolates by broth microdilution method
Streptococcus pneumoniae [15] = assay: Antimicrobial activity against Streptococcus pneumoniae serotype 6C assessed as percent susceptible isolates by broth microdilution method
Streptococcus pneumoniae [16] = assay: Antimicrobial activity against multiple drug resistant Streptococcus pneumoniae serotype 19A assessed as percent susceptible isolates by broth microdilution method
Streptococcus pneumoniae [17] = assay: Antimicrobial activity against multiple drug resistant Streptococcus pneumoniae serotype 19F assessed as percent susceptible isolates by broth microdilution method
Streptococcus pneumoniae [18] = assay: Antimicrobial activity against multiple drug resistant Streptococcus pneumoniae serotype 6B assessed as percent susceptible isolates by broth microdilution method
Streptococcus pneumoniae [19] = assay: Antimicrobial activity against Streptococcus pneumoniae serotype 15A assessed as percent susceptible isolates by broth microdilution method
Streptococcus pneumoniae [20] = assay: Antimicrobial activity against Streptococcus pneumoniae serotype 22F assessed as percent susceptible isolates by broth microdilution method
Streptococcus pneumoniae [21] = assay: Antimicrobial activity against Streptococcus pneumoniae serotype 23B assessed as percent susceptible isolates by broth microdilution method
Streptococcus pneumoniae [22] = assay: Antimicrobial activity against Streptococcus pneumoniae serotype 19F assessed as percent susceptible isolates by broth microdilution method
Streptococcus pneumoniae [23] = assay: Antimicrobial activity against Streptococcus pneumoniae serotype 23A assessed as percent susceptible isolates by broth microdilution method

`C[C@H]1COc2c(N3CCN(C)CC3)c(F)cc3c(=O)c(C(=O)O)cn1c23.C[C@H]1COc2c(N3CCN(C)CC3)c(F)cc3c(=O)c(C(=O)O)cn1c23.O` [LEVOFLOXACIN] showed an MIC50 (Streptococcus pneumoniae [1]) of 1 µg/mL, an MIC90 (Streptococcus pneumoniae [1]) of 1 µg/mL and an MIC50 (Streptococcus pneumoniae [2]) of 1 µg/mL. For the same compound, the MIC90 (Streptococcus pneumoniae [2]) was 1 µg/mL, the MIC50 (Streptococcus pneumoniae [3]) was 1 µg/mL and the MIC90 (Streptococcus pneumoniae [3]) was 1 µg/mL. It also gave an MIC50 (Streptococcus pneumoniae [4]) of 1 µg/mL, an MIC90 (Streptococcus pneumoniae [4]) of 1 µg/mL and an MIC50 (Streptococcus pneumoniae [5]) of 1 µg/mL. The MIC90 (Streptococcus pneumoniae [5]) was 2 µg/mL, the MIC50 (Streptococcus pneumoniae [6]) was 1 µg/mL and the MIC90 (Streptococcus pneumoniae [6]) was 1 µg/mL. For the same compound, the MIC50 (Streptococcus pneumoniae [7]) was 1 µg/mL, the MIC90 (Streptococcus pneumoniae [7]) was 1 µg/mL and the MIC50 (Streptococcus pneumoniae [8]) was 1 µg/mL. The MIC90 (Streptococcus pneumoniae [8]) was 1 µg/mL, the MIC50 (Streptococcus pneumoniae [9]) was 1 µg/mL and the MIC90 (Streptococcus pneumoniae [9]) was 1 µg/mL. The Activity (Streptococcus pneumoniae [10]) was 100%, the Activity (Streptococcus pneumoniae [11]) was 100% and the Activity (Streptococcus pneumoniae [12]) was 98.3%. The Activity (Streptococcus pneumoniae [13]) was 98.3%, the Activity (Streptococcus pneumoniae [14]) was 100% and the Activity (Streptococcus pneumoniae [15]) was 100%. It also gave an Activity (Streptococcus pneumoniae [16]) of 99.2%, an Activity (Streptococcus pneumoniae [17]) of 99.2% and an Activity (Streptococcus pneumoniae [18]) of 99.2%. For the same compound, the Activity (Streptococcus pneumoniae [19]) was 100%, the Activity (Streptococcus pneumoniae [20]) was 100% and the Activity (Streptococcus pneumoniae [21]) was 97%. It also gave an Activity (Streptococcus pneumoniae [22]) of 96.6% and an Activity (Streptococcus pneumoniae [23]) of 100%.
For `CC1(C)S[C@@H]2[C@H](NC(=O)Cc3ccccc3)C(=O)N2[C@H]1C(=O)O` [PENICILLIN G], the MIC50 (Streptococcus pneumoniae [1]) was 4 µg/mL (≈ 12 µM), the MIC90 (Streptococcus pneumoniae [1]) was 4 µg/mL (≈ 12 µM) and the MIC (Streptococcus pneumoniae [2]) was ≤ 0.03 µg/mL. The MIC50 (Streptococcus pneumoniae [2]) was ≤ 0.03 µg/mL, the MIC90 (Streptococcus pneumoniae [2]) was ≤ 0.03 µg/mL and the MIC50 (Streptococcus pneumoniae [3]) was 2 µg/mL (≈ 5.98 µM). The MIC90 (Streptococcus pneumoniae [3]) was 2 µg/mL (≈ 5.98 µM), the MIC (Streptococcus pneumoniae [4]) was ≤ 0.03 µg/mL and the MIC50 (Streptococcus pneumoniae [4]) was ≤ 0.03 µg/mL. For the same compound, the MIC90 (Streptococcus pneumoniae [4]) was ≤ 0.03 µg/mL, the MIC (Streptococcus pneumoniae [5]) was ≤ 0.03 µg/mL and the MIC50 (Streptococcus pneumoniae [5]) was ≤ 0.03 µg/mL. For the same compound, the MIC90 (Streptococcus pneumoniae [5]) was ≤ 0.03 µg/mL, the MIC50 (Streptococcus pneumoniae [6]) was 0.5 µg/mL (≈ 1.5 µM) and the MIC90 (Streptococcus pneumoniae [6]) was 1 µg/mL (≈ 2.99 µM). The MIC50 (Streptococcus pneumoniae [7]) was 4 µg/mL (≈ 12 µM), the MIC90 (Streptococcus pneumoniae [7]) was 4 µg/mL (≈ 12 µM) and the MIC50 (Streptococcus pneumoniae [8]) was 4 µg/mL (≈ 12 µM). It also gave an MIC90 (Streptococcus pneumoniae [8]) of 4 µg/mL (≈ 12 µM), an MIC50 (Streptococcus pneumoniae [9]) of 4 µg/mL (≈ 12 µM) and an MIC90 (Streptococcus pneumoniae [9]) of 4 µg/mL (≈ 12 µM). The Activity (Streptococcus pneumoniae [10]) was 46.6%, the Activity (Streptococcus pneumoniae [11]) was 100% and the Activity (Streptococcus pneumoniae [12]) was 98.3%. For the same compound, the Activity (Streptococcus pneumoniae [13]) was 98.3%, the Activity (Streptococcus pneumoniae [14]) was 100% and the Activity (Streptococcus pneumoniae [15]) was 100%. The Activity (Streptococcus pneumoniae [16]) was 11.4%, the Activity (Streptococcus pneumoniae [17]) was 11.4% and the Activity (Streptococcus pneumoniae [18]) was 11.4%. It also gave an Activity (Streptococcus pneumoniae [19]) of 100%, an Activity (Streptococcus pneumoniae [20]) of 100% and an Activity (Streptococcus pneumoniae [21]) of 100%. It also gave an Activity (Streptococcus pneumoniae [22]) of 37.9% and an Activity (Streptococcus pneumoniae [23]) of 100%.
For `CC1(C)S[C@@H]2[C@H](NC(=O)COc3ccccc3)C(=O)N2[C@H]1C(=O)O` [PENICILLIN V], the MIC50 (Streptococcus pneumoniae [1]) was 4 µg/mL (≈ 11.4 µM), the MIC90 (Streptococcus pneumoniae [1]) was 4 µg/mL (≈ 11.4 µM) and the MIC (Streptococcus pneumoniae [2]) was ≤ 0.03 µg/mL. The MIC50 (Streptococcus pneumoniae [2]) was ≤ 0.03 µg/mL, the MIC90 (Streptococcus pneumoniae [2]) was ≤ 0.03 µg/mL and the MIC50 (Streptococcus pneumoniae [3]) was 2 µg/mL (≈ 5.71 µM). For the same compound, the MIC90 (Streptococcus pneumoniae [3]) was 2 µg/mL (≈ 5.71 µM), the MIC (Streptococcus pneumoniae [4]) was ≤ 0.03 µg/mL and the MIC50 (Streptococcus pneumoniae [4]) was ≤ 0.03 µg/mL. The MIC90 (Streptococcus pneumoniae [4]) was ≤ 0.03 µg/mL, the MIC (Streptococcus pneumoniae [5]) was ≤ 0.03 µg/mL and the MIC50 (Streptococcus pneumoniae [5]) was ≤ 0.03 µg/mL. The MIC90 (Streptococcus pneumoniae [5]) was ≤ 0.03 µg/mL, the MIC50 (Streptococcus pneumoniae [6]) was 0.5 µg/mL (≈ 1.43 µM) and the MIC90 (Streptococcus pneumoniae [6]) was 1 µg/mL (≈ 2.85 µM). The MIC50 (Streptococcus pneumoniae [7]) was 4 µg/mL (≈ 11.4 µM), the MIC90 (Streptococcus pneumoniae [7]) was 4 µg/mL (≈ 11.4 µM) and the MIC50 (Streptococcus pneumoniae [8]) was 4 µg/mL (≈ 11.4 µM). It also gave an MIC90 (Streptococcus pneumoniae [8]) of 4 µg/mL (≈ 11.4 µM), an MIC50 (Streptococcus pneumoniae [9]) of 4 µg/mL (≈ 11.4 µM) and an MIC90 (Streptococcus pneumoniae [9]) of 4 µg/mL (≈ 11.4 µM). For the same compound, the Activity (Streptococcus pneumoniae [10]) was 13.8%, the Activity (Streptococcus pneumoniae [11]) was 98.8% and the Activity (Streptococcus pneumoniae [12]) was 10.2%. It also gave an Activity (Streptococcus pneumoniae [13]) of 10.2%, an Activity (Streptococcus pneumoniae [14]) of 95.9% and an Activity (Streptococcus pneumoniae [15]) of 37.2%. The Activity (Streptococcus pneumoniae [16]) was 0%, the Activity (Streptococcus pneumoniae [17]) was 0% and the Activity (Streptococcus pneumoniae [18]) was 0%. The Activity (Streptococcus pneumoniae [19]) was 10.5%, the Activity (Streptococcus pneumoniae [20]) was 100% and the Activity (Streptococcus pneumoniae [21]) was 84.8%. The Activity (Streptococcus pneumoniae [22]) was 20.7% and the Activity (Streptococcus pneumoniae [23]) was 36.4%.
For `CN[C@H](CC(C)C)C(=O)N[C@H]1C(=O)N[C@@H](CC(N)=O)C(=O)N[C@H]2C(=O)N[C@H]3C(=O)N[C@H](C(=O)N[C@H](C(=O)O)c4cc(O)cc(O)c4-c4cc3ccc4O)[C@H](O)c3ccc(c(Cl)c3)Oc3cc2cc(c3O[C@@H]2O[C@H](CO)[C@@H](O)[C@H](O)[C@H]2O[C@H]2C[C@](C)(N)[C@H](O)[C@H](C)O2)Oc2ccc(cc2Cl)[C@H]1O` [VANCOMYCIN], the MIC (Streptococcus pneumoniae [1]) was ≤ 1 µg/mL, the MIC50 (Streptococcus pneumoniae [1]) was ≤ 1 µg/mL and the MIC90 (Streptococcus pneumoniae [1]) was ≤ 1 µg/mL. For the same compound, the MIC (Streptococcus pneumoniae [2]) was ≤ 1 µg/mL, the MIC50 (Streptococcus pneumoniae [2]) was ≤ 1 µg/mL and the MIC90 (Streptococcus pneumoniae [2]) was ≤ 1 µg/mL. The MIC (Streptococcus pneumoniae [3]) was ≤ 1 µg/mL, the MIC50 (Streptococcus pneumoniae [3]) was ≤ 1 µg/mL and the MIC90 (Streptococcus pneumoniae [3]) was ≤ 1 µg/mL. The MIC (Streptococcus pneumoniae [4]) was ≤ 1 µg/mL, the MIC50 (Streptococcus pneumoniae [4]) was ≤ 1 µg/mL and the MIC90 (Streptococcus pneumoniae [4]) was ≤ 1 µg/mL. The MIC (Streptococcus pneumoniae [5]) was ≤ 1 µg/mL, the MIC50 (Streptococcus pneumoniae [5]) was ≤ 1 µg/mL and the MIC90 (Streptococcus pneumoniae [5]) was ≤ 1 µg/mL. The MIC (Streptococcus pneumoniae [6]) was ≤ 1 µg/mL, the MIC50 (Streptococcus pneumoniae [6]) was ≤ 1 µg/mL and the MIC90 (Streptococcus pneumoniae [6]) was ≤ 1 µg/mL. The MIC (Streptococcus pneumoniae [7]) was ≤ 1 µg/mL, the MIC50 (Streptococcus pneumoniae [7]) was ≤ 1 µg/mL and the MIC90 (Streptococcus pneumoniae [7]) was ≤ 1 µg/mL. For the same compound, the MIC (Streptococcus pneumoniae [8]) was ≤ 1 µg/mL, the MIC50 (Streptococcus pneumoniae [8]) was ≤ 1 µg/mL and the MIC90 (Streptococcus pneumoniae [8]) was ≤ 1 µg/mL. The MIC (Streptococcus pneumoniae [9]) was ≤ 1 µg/mL, the MIC50 (Streptococcus pneumoniae [9]) was ≤ 1 µg/mL and the MIC90 (Streptococcus pneumoniae [9]) was ≤ 1 µg/mL. The Activity (Streptococcus pneumoniae [10]) was 100%, the Activity (Streptococcus pneumoniae [11]) was 100% and the Activity (Streptococcus pneumoniae [12]) was 100%. It also gave an Activity (Streptococcus pneumoniae [13]) of 100%, an Activity (Streptococcus pneumoniae [14]) of 100% and an Activity (Streptococcus pneumoniae [15]) of 100%. It also gave an Activity (Streptococcus pneumoniae [16]) of 100%, an Activity (Streptococcus pneumoniae [17]) of 100% and an Activity (Streptococcus pneumoniae [18]) of 100%. It also gave an Activity (Streptococcus pneumoniae [19]) of 100%, an Activity (Streptococcus pneumoniae [20]) of 100% and an Activity (Streptococcus pneumoniae [21]) of 100%. It also gave an Activity (Streptococcus pneumoniae [22]) of 100% and an Activity (Streptococcus pneumoniae [23]) of 100%.
